According to patent US10195185B2, “3-(1H-imidazo[4,5-C]pyridin-2-yl)-1H-pyrazolo[4,3-B]pyridines and therapeutic uses thereof” (Samumed, LLC, priority 2015, dated 2019):

Tested on: IL-6 in human monocyte cell line (THP-1 cells)
Assay: IL-6 inhibition in LPS-stimulated THP-1 cells (HTRF)
Type: cell-based
Conditions: IL-6 in LPS-stimulated THP-1 cells; for EC50: HTRF; for inhibition at 10 µM: read-out: percent inhibition in brackets beside EC50 >10 μM
Method: Human monocyte cell line (THP-1 cells; Catalog # TIB-202, ATCC, Manassas, Va.) were cultured in Roswell Park Memorial Institute (RPMI) 1640 Medium (Catalog #21870-100, Buffalo, N.Y.) with 1% L-glutamine, 1% HEPES, 1% Sodium Pyruvate, 2% Sodium Bicarbonate supplemented with 100 units/mL penicillin, 50 μg/mL streptomycin, 2-mercaptoethanol (0.05 mM) [basal medium] and 10% fetal bovine serum (Catalog #16140089, Life Technologies, Carlsbad, Calif.) at 37° C. and 5% CO2.
THP-1 cells were cultured in basal media with 1% FBS for 24 hours before the start of the assay. Each compound was dissolved in DMSO as a 10 mM stock and used to prepare compound source plates. Serial dilution (1:3, 10-point dose-response curves starting from 10 μM) and compound transfer was performed using the ECHO 550 (Labcyte, Sunnyvale, Calif.) into 384-well white low volume assay plates (Greiner Bio-One) with appropriate DMSO backfill for a final DMSO concentration of 0.1%. THP-1 cells were plated at 5000 cells/well in the 384-well plates and incubated at 37° C. for 2 h. 500 ng/mL of LPS was added after 2 hours and cells were incubated for another 22 hours at 37° C. Plates were spun in a centrifuge for 1 minute at […] and a mixture of anti-IL6 XL665, and anti-IL6 Cryptate diluted in reconstitution buffer (Cisbio Inc.) was added to each well. Following incubation for 3 hrs at room temperature, Homogeneous Time-Resolved Fluorescence (HTRF) was measured using the Envision (Perkin Elmer) at 665 nm and […]. The ratio of fluorescence at 665 nm to 620 nm was used as a readout for IL6 quantification. All samples were processed in duplicate. Readings were normalized to DMSO treated cells and normalized activities were utilized for EC50 calculations using the dose-response log (inhibitor) vs. response-variable slope (four parameters) nonlinear regression feature available in GraphPad Prism 5.0 (or Dotmatics). For EC50 of >10 μM, the percent inhibition at 10 μM is provided.

SMILES | EC50 [µM] | inhibition at 10 µM [%]
COc1cccc(-c2nccc3[nH]c(-c4n[nH]c5ccc(-c6cncc(NC(=O)CC(C)(C)C)c6)nc45)nc23)c1 [Compound 1006, N-(5-(3-(4-(3-methoxyphenyl)-1H-imidazo[4,5-c]pyridin-2-yl)-1H-pyrazolo [4,3-b]pyridin-5-yl)pyridin-3-yl)-3,3-dimethylbutanamide] | > 10 | 32.3
Cc1ccc(-c2nccc3[nH]c(-c4n[nH]c5ccc(C6=CCNCC6)nc45)nc23)s1 [Compound 730, 3-(4-(5-Methylthiophen-2-yl)-1H-imidazo[4,5-c]pyridin-2-yl)-5-(1,2,3,6-tetrahydropyridin-4-yl)-1H-pyrazolo[4,3-b]pyridine] | > 10 | 29.5
Cc1ccc(-c2nccc3[nH]c(-c4n[nH]c5ccc(-c6cncc(OC7CCCCC7)c6)nc45)nc23)s1 [Compound 735, 5-(5-(Cyclohexyloxy)pyridin-3-yl)-3-(4-(5-methylthiophen-2-yl)-1H-imidazo[4,5-c]pyridin-2-yl)-1H-pyrazolo[4,3-b]pyridine] | > 10 | 18.8
O=C(Cc1ccccc1)Nc1cncc(-c2ccc3[nH]nc(-c4nc5cnccc5[nH]4)c3n2)c1 [Compound 262, N-(5-(3-(1H-imidazo[4,5-c]pyridin-2-yl)-1H-pyrazolo[4,3-b]pyridin-5-yl)pyridin-3-yl)-2-phenylacetamide] | > 10 | 35.4
Cn1cc(-c2ccc3[nH]nc(-c4nc5c(-c6cc(F)cc(CNS(C)(=O)=O)c6)nccc5[nH]4)c3n2)cn1 [Compound 764, N-(3-Fluoro-5-(2-(5-(1-methyl-1H-pyrazol-4-yl)-1H-pyrazolo [4,3-b]pyridin-3-yl)-1H-imidazo[4,5-c]pyridin-4-yl)benzyl)methanesulfonamide] | > 10 | 0
CN1CCN(c2nccc3[nH]c(-c4n[nH]c5ccc(-c6cncc(NC(=O)C7CCCC7)c6)nc45)nc23)CC1 [Compound 246, N-(5-(3-(4-(4-Methylpiperazin-1-yl)-1H-imidazo[4,5-c]pyridin-2-yl)-1H-pyrazolo [4,3-b]pyridin-5-yl)pyridin-3-yl)cyclopentanecarboxamide] | > 10 | 37.7
c1cc2[nH]c(-c3n[nH]c4ccc(-c5cn[nH]c5)nc34)nc2cn1 [Compound 651, 3-(1H-Imidazo[4,5-c]pyridin-2-yl)-5-(1H-pyrazol-4-yl)-1H-pyrazolo[4,3-b]pyridine] | > 10 | 0
c1cc(-c2ccc3[nH]nc(-c4nc5c(-c6ccncc6)nccc5[nH]4)c3n2)ccn1 [Compound 130, 5-(pyridin-4-yl)-3-(4-(pyridin-4-yl)-1H-imidazo[4,5-c]pyridin-2-yl)-1H-pyrazolo[4,3-b]pyridine] | 0.203 | 
O=C(Nc1cncc(-c2ccc3[nH]nc(-c4nc5c(N6CCCCC6)nccc5[nH]4)c3n2)c1)C1CC1 [Compound 188, N-(5-(3-(4-(Piperidin-1-yl)-1H-imidazo[4,5-c]pyridin-2-yl)-1H-pyrazolo [4,3-b]pyridin-5-yl)pyridin-3-yl)cyclopropanecarboxamide] | > 10 | 15.9
Cn1cc(-c2ccc3[nH]nc(-c4nc5c(-c6ccc(F)cc6)nccc5[nH]4)c3n2)c(CO)n1 [Compound 1128, (4-(3-(4-(4-Fluorophenyl)-1H-imidazo[4,5-c]pyridin-2-yl)-1H-pyrazolo[4,3-b]pyridin-5-yl)-1-methyl-1H-pyrazol-3-yl)methanol] | > 10 | 0
Fc1ccccc1-c1nccc2[nH]c(-c3n[nH]c4ccc(-c5ccccn5)nc34)nc12 [Compound 84, 3-(4-(2-Fluorophenyl)-1H-imidazo[4,5-c]pyridin-2-yl)-5-(pyridin-2-yl)-1H-pyrazolo[4,3-b]pyridine] | > 10 | 27.2
COc1cccc(-c2nccc3[nH]c(-c4n[nH]c5ccc(-c6cncc(O)c6)nc45)nc23)c1 [Compound 1030, 5-(3-(4-(3-Methoxyphenyl)-1H-imidazo[4,5-c]pyridin-2-yl)-1H-pyrazolo [4,3-b]pyridin-5-yl)pyridin-3-ol] | 0.493 | 
O=C(CC1CCNCC1)Nc1cncc(-c2ccc3[nH]nc(-c4nc5c(-c6ccsc6)nccc5[nH]4)c3n2)c1 [Compound 673, 2-(Piperidin-4-yl)-N-(5-(3-(4-(thiophen-3-yl)-1H-imidazo[4,5-c]pyridin-2-yl)-1H-pyrazolo[4,3-b]pyridin-5-yl)pyridin-3-yl)acetamide] | > 10 | 40.5
Cn1cc(-c2ccc3[nH]nc(-c4nc5c(-c6cccs6)nccc5[nH]4)c3n2)cn1 [Compound 700, 5-(1-Methyl-1H-pyrazol-4-yl)-3-(4-(thiophen-2-yl)-1H-imidazo[4,5-c]pyridin-2-yl)-1H-pyrazolo[4,3-b]pyridine] | > 10 | 0
Oc1cncc(-c2ccc3[nH]nc(-c4nc5cnccc5[nH]4)c3n2)c1 [Compound 661, 5-(3-(1H-Imidazo[4,5-c]pyridin-2-yl)-1H-pyrazolo[4,3-b]pyridin-5-yl) pyridin-3-ol] | > 10 | 31.3
c1cc2[nH]c(-c3n[nH]c4ccc(C5CCNCC5)nc34)nc2c(-c2ccc3c(c2)OCO3)n1 [Compound 1108, 3-(4-(Benzo[d][1,3]dioxol-5-yl)-1H-imidazo[4,5-c]pyridin-2-yl)-5-(piperidin-4-yl)-1H-pyrazolo[4,3-b]pyridine] | > 10 | 22.8
c1cc2[nH]c(-c3n[nH]c4ccc(-c5cncc(OCCN6CCCC6)c5)nc34)nc2c(-c2ccoc2)n1 [Compound 690, 3-(4-(Furan-3-yl)-1H-imidazo[4,5-c]pyridin-2-yl)-5-(5-(2-(pyrrolidin-1-yl)ethoxy)pyridin-3-yl)-1H-pyrazolo[4,3-b]pyridine] | 1.46 | 
O=C(Nc1cncc(-c2ccc3[nH]nc(-c4nc5c(-c6ccccc6F)nccc5[nH]4)c3n2)c1)C1CCCC1 [Compound 78, N-(5-(3-(4-(2-Fluorophenyl)-1H-imidazo[4,5-c]pyridin-2-yl)-1H-pyrazolo [4,3-b]pyridin-5-yl)pyridin-3-yl)cyclopentanecarboxamide] | > 10 | 29.7
Fc1ccccc1-c1nccc2[nH]c(-c3n[nH]c4ccc(-c5cncc(CNCC6CCCC6)c5)nc34)nc12 [Compound 81, 1-Cyclopentyl-N-((5-(3-(4-(2-fluorophenyl)-1H-imidazo[4,5-c]pyridin-2-yl)-1H-pyrazolo[4,3-b]pyridin-5-yl)pyridin-3-yl)methyl)methanamine] | > 10 | 54.6
c1cc2[nH]c(-c3n[nH]c4ccc(-c5cncc(CNCC6CCCC6)c5)nc34)nc2c(-c2ccoc2)n1 [Compound 333, 1-Cyclopentyl-N-((5-(3-(4-(furan-3-yl)-1H-imidazo[4,5-c]pyridin-2-yl)-1H-pyrazolo [4,3-b]pyridin-5-yl)pyridin-3-yl)methyl)methanamine] | > 10 | 32.3
CN(C)CCNc1cc(F)cc(-c2nccc3[nH]c(-c4n[nH]c5ccc(-c6cnccn6)nc45)nc23)c1 [Compound 792, N^1-(3-Fluoro-5-(2-(5-(pyrazin-2-yl)-1H-pyrazolo[4,3-b]pyridin-3-yl)-1H-imidazo[4,5-c]pyridin-4-yl)phenyl)-N^2,N^2-dimethylethane-1,2-diamine] | > 10 | 32.6
O=C(Nc1cncc(-c2ccc3[nH]nc(-c4nc5cnccc5[nH]4)c3n2)c1)C1CCCCC1 [Compound 275, N-(5-(3-(1H-Imidazo[4,5-c]pyridin-2-yl)-1H-pyrazolo[4,3-b]pyridin-5-yl)pyridin-3-yl)cyclohexanecarboxamide] | > 10 | 31.5
CN1CCN(c2nccc3[nH]c(-c4n[nH]c5ccc(-c6cncnc6)nc45)nc23)CC1 [Compound 251, 3-(4-(4-Methylpiperazin-1-yl)-1H-imidazo[4,5-c]pyridin-2-yl)-5-(pyrimidin-5-yl)-1H-pyrazolo[4,3-b]pyridine] | > 10 | 8.3
O=C(Nc1cncc(-c2ccc3[nH]nc(-c4nc5c(-c6ccsc6)nccc5[nH]4)c3n2)c1)c1ccccc1 [Compound 291, N-(5-(3-(4-(Thiophen-3-yl)-1H-imidazo[4,5-c]pyridin-2-yl)-1H-pyrazolo [4,3-b]pyridin-5-yl)pyridin-3-yl)benzamide] | > 10 | 0
COc1cccc(-c2nccc3[nH]c(-c4n[nH]c5ccc(-c6cn[nH]c6)nc45)nc23)c1 [Compound 1020, 3-(4-(3-Methoxyphenyl)-1H-imidazo[4,5-c]pyridin-2-yl)-5-(1H-pyrazol-4-yl)-1H-pyrazolo[4,3-b]pyridine] | > 10 | 0
